{
  "source": "paper PMC5980259",
  "about": "“GI‐530159, a novel, selective, mechanosensitive two‐pore‐domain potassium (K2P) channel opener, reduces rat dorsal root ganglion neuron excitability” (British Journal of Pharmacology, 2017)",
  "format_in_all_cases": "cell-based",
  "key": {"hTREK1 [1]": {"target": "T1, hTREK1 (Homo sapiens, UniProt O95069)", "T1 sequence (O95069 1-426)": "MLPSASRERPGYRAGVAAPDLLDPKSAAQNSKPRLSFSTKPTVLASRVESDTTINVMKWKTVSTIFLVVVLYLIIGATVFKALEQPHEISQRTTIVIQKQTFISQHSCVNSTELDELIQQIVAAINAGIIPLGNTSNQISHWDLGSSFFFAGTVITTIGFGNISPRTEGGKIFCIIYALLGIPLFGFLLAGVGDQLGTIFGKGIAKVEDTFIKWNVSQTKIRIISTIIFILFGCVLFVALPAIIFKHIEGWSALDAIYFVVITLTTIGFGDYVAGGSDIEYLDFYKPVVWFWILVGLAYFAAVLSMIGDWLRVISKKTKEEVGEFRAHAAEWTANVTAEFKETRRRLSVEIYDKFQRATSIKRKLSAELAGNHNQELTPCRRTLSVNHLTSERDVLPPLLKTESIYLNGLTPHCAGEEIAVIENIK", "assay": "Automated whole-cell patch clamp (Qpatch), CHO–TREK1 cells", "design": "expressed in transfected cells", "conditions": "1 μM; stably transfected CHO cells", "experimental": "Automated patch‐clamp studies were performed with the Qpatch Sophion Bioscience A/S (Ballerup, Denmark) automated patch‐clamp platform. Sixteen‐well Qplates were loaded with CHO cells stably expression human recombinant TREK1 (CHO–TREK1 cells) in external buffer containing (in mM) 148 NaCl, 5 KCl, 1 CaCl2, 1 MgCl2, 10 HEPES and 10 glucose. Internal recording solution was (in mM) 100 K gluconate, 40 KCl, 1 MgCl2, 10 BAPTA, 10 HEPES and 1 MgATP.\nSupplementary Information\nSupplementary Figure S1: Activation of hTREK1 current by GI-530159 in automated patch […]\nFigure S1: Activation of hTREK1 current by GI-530159 in automated patch recordings.\nA) Human TREK1 current elicited by pulse protocol shown recorded on Qpatch 16 automated patch clamp platform after administration of 0.1% DMSO vehicle, 1 µM GI-530159 or after washout with 0.1% DMSO. B) Time course of TREK1 current amplitude recorded at 0 mV on Qpatch platform before during and after washout of 1 µM GI-530159.\n(1 picture or pasted object on this page, not shown here)"}, "hTRAAK": {"target": "T2, hTRAAK (Homo sapiens, UniProt Q9NYG8)", "T2 construct": "expressed in transfected cells; host or cells: tsA-201, transient, pcDNA3.1 vector", "T2 sequence (Q9NYG8 1-393)": "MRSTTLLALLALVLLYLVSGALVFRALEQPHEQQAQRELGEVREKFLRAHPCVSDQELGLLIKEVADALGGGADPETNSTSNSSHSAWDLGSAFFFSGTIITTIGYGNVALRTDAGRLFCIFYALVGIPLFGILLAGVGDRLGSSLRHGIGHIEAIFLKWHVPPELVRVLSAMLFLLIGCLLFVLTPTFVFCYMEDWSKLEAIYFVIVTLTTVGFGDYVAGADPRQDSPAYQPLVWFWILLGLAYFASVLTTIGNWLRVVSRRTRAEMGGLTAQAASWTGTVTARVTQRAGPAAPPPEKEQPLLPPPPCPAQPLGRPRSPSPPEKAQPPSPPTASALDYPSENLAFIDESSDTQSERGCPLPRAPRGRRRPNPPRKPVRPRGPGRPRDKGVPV", "assay": "Whole-cell patch clamp, transiently transfected tsA-201 cells, TRAAK", "experimental": "Recordings of hTREK1, hTREK1∆N, hTREK2, hTRAAK and […] currents from transiently transfected tsA‐201 cells were performed using methods as described in Veale and Mathie (2016). Briefly, the pcDNA3.1 vector was cloned with the gene of interest, and these vectors and a similar vector containing GFP were incorporated into the tsA201 cells (0.5 μg per well) using the calcium phosphate method. The cells were incubated for 6–12 h at 37°C in […] and 5% carbon dioxide. Cells were then washed using a PBS solution and used for experiments after 24 h.\nCurrents were recorded using whole‐cell patch‐clamp using an Axopatch 1D amplifier. Cells were placed in a recording chamber filled with an external medium composed of 145 mM, NaCl, 2.5 mM KCl, 3 mM MgCl2, 1 mM CaCl2 and 10 mM HEPES (pH to 7.4, using NaOH). The internal medium used in the glass pipette comprised 150 mM KCl, 3 mM MgCl2, 5 mM (or 0.1 mM) EGTA and 10 mM HEPES (pH to 7.4, using KOH). GI‐530159 was applied by bath perfusion. Currents were recorded and analysed using pCLAMP 10.2 software Microsoft Excel. The voltage protocol used for recording current through K2P channels was as previously described (Veale and Mathie, 2016). For analysis, we measured the current difference between the −80 and −40 mV steps."}, "hTREK1 [2]": {"target": "T1, hTREK1", "assay": "Manual whole-cell patch clamp, HEK293 cells stably expressing TREK1", "design": "expressed in transfected cells", "experimental": "Electrophysiological studies were performed on CHO or HEK293 cells, stably expressing human recombinant TREK1; tsA‐201 cells transiently transfected with human recombinant K2P channels and acutely dissociated rat DRG cells, all at room temperature (22–24°C).\nStudies were performed using a conventional patch clamp and Multiclamp 700B and pCLAMP software (Molecular Devices, Sunnyvale, CA, USA). For conventional manual patch clamp, glass coverslips containing HEK293 cells were perfused with an extracellular solution (ECS) containing (in mM): 135 NaCl, 4.7 KCl, 1 CaCl2, 1 MgCl2, 10 HEPES and 10 glucose, pH 7.4, with NaOH (310 mOsmol·L^−1). The patch pipette was filled with (in mM): 130 KCl, 1 MgCl2, 5 MgATP, 10 HEPES and 10 BAPTA, pH adjusted to 7.3 with KOH (290 mOsmol·L^−1)."}},
  "note": "Several values for one entry are separate records, joined by “and”; a condition that tells them apart may be missing. Equal entries are not always repeated.",
  "data": [
    {"compound": "Nc1ccc(Oc2ccc(C(c3ccc(Oc4ccc(N)cc4)cc3)(C(F)(F)F)C(F)(F)F)cc2)cc1", "note": "[GI‐530159, 4,4′‐(hexafluoroisopropylidene)bis(p‐phenyleneoxy)dianiline]", "values": [
      {"measurement": "effect on hTREK1 current, Qpatch", "setting": "hTREK1 [1]", "result": "effective at reversibly enhancing current"},
      {"measurement": "enhancement of TRAAK current", "setting": "hTRAAK; 1 μM, tsA-201, n = 7", "result": "2 ± 10", "unit": "%"},
      {"measurement": "effect on TRAAK channels", "setting": "hTRAAK; 10 μM", "result": "no detectable effect"},
      {"measurement": "TREK1 current measured at 0 mV", "setting": "hTREK1 [2]; 1 μM, HEK293, 116 ± 15 pA in presence of DMSO, n = 6, P < 0.05", "result": "4090 ± 878", "unit": "pA"},
      {"measurement": "activated current, TREK1 channels", "setting": "hTREK1 [2]; 1 μM, n = 6", "result": "4.0 ± 0.9", "unit": "nA"},
      {"measurement": "reversal potential of compound-enhanced current", "setting": "hTREK1 [2]; 1 μM, voltage ramp −100 to +80 mV", "result": "~−80", "unit": "mV"},
      {"measurement": "enhanced current at maximal activation", "setting": "hTREK1 [2]; 30 μM, measured at 0 mV, n = 5", "result": "6.6 ± 0.9", "unit": "nA"},
      {"measurement": "EC50", "setting": "hTREK1 [2]; HEK293, 0.1 to 30 μM, measured at 0 mV, read-out: EC50 for TREK1 current enhancement", "result": "0.89 µM and 0.9 µM"}
    ]}
  ]
}
